The results in this text go back to PubChem BioAssay AID1259407 (Chemical Carcinogenesis Research Information System (CCRIS), 2018).

Calls of active or inactive are those of the source. The rule behind the calls is not given here.

This data set relates to CCRIS mutagenicity, Ames/micronucleus/aberration tests. Briefly: CCRIS mutagenicity studies.
[1] abbreviates: Test System: AMES SALMONELLA TYPHIMURIUM, Strain/Indicator: TA100, Metabolic Activation: NONE, Method: STANDARD PLATE.
Where [2] appears, read: Test System: AMES SALMONELLA TYPHIMURIUM, Strain/Indicator: TA98, Metabolic Activation: HAMSTER, LIVER, S-9, AROCLOR 1254 (10%), Method: PREINCUBATION
The mark [3] stands for this setting: Test System: AMES SALMONELLA TYPHIMURIUM, Strain/Indicator: TA98, Metabolic Activation: NONE, Method: PREINCUBATION
The mark [4] stands for this setting: Test System: AMES SALMONELLA TYPHIMURIUM, Strain/Indicator: TA98, Metabolic Activation: RAT, LIVER, S-9, AROCLOR 1254 (10%), Method: PREINCUBATION
The mark [5] stands for this setting: Test System: AMES SALMONELLA TYPHIMURIUM, Strain/Indicator: TA100, Metabolic Activation: HAMSTER, LIVER, S-9, AROCLOR 1254 (10%), Method: PREINCUBATION
The mark [6] stands for this setting: Test System: AMES SALMONELLA TYPHIMURIUM, Strain/Indicator: TA100, Metabolic Activation: NONE, Method: PREINCUBATION
Where [7] appears, read: Test System: AMES SALMONELLA TYPHIMURIUM, Strain/Indicator: TA100, Metabolic Activation: RAT, LIVER, S-9, AROCLOR 1254 (10%), Method: PREINCUBATION
Setting [8] is: Test System: AMES SALMONELLA TYPHIMURIUM, Strain/Indicator: TA1535, Metabolic Activation: HAMSTER, LIVER, S-9, AROCLOR 1254 (10%), Method: PREINCUBATION
Where [9] appears, read: Test System: AMES SALMONELLA TYPHIMURIUM, Strain/Indicator: TA1535, Metabolic Activation: NONE, Method: PREINCUBATION
[10] abbreviates: Test System: AMES SALMONELLA TYPHIMURIUM, Strain/Indicator: TA1535, Metabolic Activation: RAT, LIVER, S-9, AROCLOR 1254 (10%), Method: PREINCUBATION
Where [11] appears, read: Test System: AMES SALMONELLA TYPHIMURIUM, Strain/Indicator: TA1537, Metabolic Activation: HAMSTER, LIVER, S-9, AROCLOR 1254 (10%), Method: PREINCUBATION
Setting [12] is: Test System: AMES SALMONELLA TYPHIMURIUM, Strain/Indicator: TA1537, Metabolic Activation: NONE, Method: PREINCUBATION
Where [13] appears, read: Test System: AMES SALMONELLA TYPHIMURIUM, Strain/Indicator: TA1537, Metabolic Activation: RAT, LIVER, S-9, AROCLOR 1254 (10%), Method: PREINCUBATION
[14] abbreviates: Test System: MOUSE LYMPHOMA, Strain/Indicator: L5178Y (TK+/TK-), Metabolic Activation: NONE, Method: SUSPENSION/PLATE.

As for `CNC(=O)/C=C(\C)OP(=O)(OC)OC`, the mutagenic call is “active; positive (structural changes and ploidy)” (End Point: In vitro chromosomal aberrations, Test System: Human lymphocytes, Metabolic Activation: None); “inactive; negative” (Test System: AMES SALMONELLA TYPHIMURIUM, Strain/Indicator: TA97A, Metabolic Activation: NONE, Method: STANDARD PLATE); “inactive; negative” (Test System: AMES SALMONELLA TYPHIMURIUM, Strain/Indicator: TA97A, Metabolic Activation: PLANT, HOMOGENATE, S-14, Method: STANDARD PLATE); “inactive; negative” (Test System: AMES SALMONELLA TYPHIMURIUM, Strain/Indicator: TA97A, Metabolic Activation: S-9, Method: STANDARD PLATE); “inactive; negative” (Test System: AMES SALMONELLA TYPHIMURIUM, Strain/Indicator: TA98, Metabolic Activation: NONE, Method: STANDARD PLATE); “inactive; negative” (Test System: AMES SALMONELLA TYPHIMURIUM, Strain/Indicator: TA98, Metabolic Activation: PLANT, HOMOGENATE, S-14, Method: STANDARD PLATE). Further, the mutagenic call (Test System: AMES SALMONELLA TYPHIMURIUM, Strain/Indicator: TA98, Metabolic Activation: S-9, Method: STANDARD PLATE) is “inactive; negative”; the mutagenic call under setting [1] was “inactive; negative”; the mutagenic call (Test System: AMES SALMONELLA TYPHIMURIUM, Strain/Indicator: TA100, Metabolic Activation: PLANT, HOMOGENATE, S-14, Method: STANDARD PLATE) was “inactive; negative”; the mutagenic call (Test System: AMES SALMONELLA TYPHIMURIUM, Strain/Indicator: TA100, Metabolic Activation: S-9, Method: STANDARD PLATE) was “inactive; negative”; the mutagenic call (Test System: AMES SALMONELLA TYPHIMURIUM, Strain/Indicator: TA1535, Metabolic Activation: PLANT, HOMOGENATE, S-14, Method: STANDARD PLATE) was “inactive; negative”; the mutagenic call (Test System: AMES SALMONELLA TYPHIMURIUM, Strain/Indicator: TA1535, Metabolic Activation: S-9, Method: STANDARD PLATE) is “inactive; negative”. The mutagenic call (Test System: UDS HUMAN FIBROBLASTS, Strain/Indicator: THY INCORP (NON-S-PHASE), Metabolic Activation: NONE, Method: LIQUID SCINTILLATION COUNTING) was “active; positive”.

`O=C(NCO)c1ccc(Cl)cc1`: the mutagenic call runs as follows: (Test System: AMES SALMONELLA TYPHIMURIUM, Strain/Indicator: TA100, Metabolic Activation: RAT, LIVER, S-9, AROCLOR AND 3'-PHOSPHOADENOSINE-5'-PHOSPHOSULPHATE GENERATING SYSTEM, Method: PREINCUBATION) “inactive; negative”; (Test System: AMES SALMONELLA TYPHIMURIUM, Strain/Indicator: TA100, Metabolic Activation: RAT, LIVER, S-9, AROCLOR AND ACETYL COENZYME A, Method: PREINCUBATION) “inactive; negative”; (Test System: AMES SALMONELLA TYPHIMURIUM, Strain/Indicator: TA100, Metabolic Activation: RAT, LIVER, S-9, AROCLOR, Method: PREINCUBATION) “inactive; negative”.

`C=CC(=O)OCC(CO)(COC(=O)C=C)COC(=O)C=C`: the mutagenic call is, setting by setting: (End Point: In vivo micronucleus, Test System: Peripheral blood normochromatic erythrocytes, Species: Mouse, Strain/Sex: B6C3F1/Female) “inactive; negative”; (End Point: In vivo micronucleus, Test System: Peripheral blood normochromatic erythrocytes, Species: Mouse, Strain/Sex: B6C3F1/Male, Route: Dermal) “inactive; negative”; (End Point: In vivo micronucleus, Test System: Peripheral blood normochromatic erythrocytes, Species: Mouse, Strain/Sex: FVB.N/TgN (v-Ha-ras) Tg.AC hemizygous/Female, Route: Dermal) “active; positive”; (End Point: In vivo micronucleus, Test System: Peripheral blood normochromatic erythrocytes, Species: Mouse, Strain/Sex: FVB.N/TgN (v-Ha-ras) Tg.AC hemizygous/Male, Route: Dermal) “inactive; negative (described as equivocal by ntp)”; under setting [2], “inactive; negative”; under setting [3], “inactive; negative”. Moreover, the mutagenic call by setting is: under setting [4], “inactive; negative”; under setting [5], “inactive; negative”; under setting [6], “inactive; negative”; under setting [7], “inactive; negative”; under setting [8], “inactive; negative”; under setting [9], “inactive; negative”. The mutagenic call reads like this: under setting [10], “inactive; negative”; under setting [11], “inactive; negative”; under setting [12], “inactive; negative”; under setting [13], “inactive; negative”; under setting [14], “active; positive”.

Take `CC(=O)N(O)CCCCCNC(=O)CCC(=O)N(O)CCCCCNC(=O)CCC(=O)N(O)CCCCCN`: the mutagenic call under setting [14] was “active; positive. reevaluation of results: positive” and the mutagenic call (Test System: MOUSE LYMPHOMA, Strain/Indicator: L5178Y (TK+/TK-), Metabolic Activation: RAT, LIVER, S-9, AROCLOR 1254, Method: SUSPENSION/PLATE) was “active; positive. reevaluation of results: positive”.

Regarding `O=C1c2cc(O)cc(O)c2C(=O)c2c(O)cc(CO)cc21`, the mutagenic call reads like this: (Test System: AMES SALMONELLA TYPHIMURIUM, Strain/Indicator: TA1537, Metabolic Activation: RAT, LIVER, S-9, PCB, Method: STANDARD PLATE) “active; positive”; (Test System: AMES SALMONELLA TYPHIMURIUM, Strain/Indicator: TA1537, Metabolic Activation: RAT, LIVER, S-9, POLYCHLORINATED BIPHENYLS, Method: STANDARD PLATE) “active; positive”.

With `CC(=O)NS(=O)(=O)c1ccc(N)cc1`, the mutagenic call is “inactive; negative” (End Point: IN VITRO CHROMOSOMAL ABERRATIONS, Test System: CHINESE HAMSTER OVARY CELLS, Metabolic Activation: NONE); “inactive; negative” (End Point: IN VITRO CHROMOSOMAL ABERRATIONS, Test System: CHINESE HAMSTER OVARY CELLS, Metabolic Activation: RAT, LIVER, S-9, AROCLOR 1254); “inactive; negative” under setting [2]; “inactive; negative” under setting [3]; “inactive; negative” under setting [4]; “inactive; negative” under setting [5]. The mutagenic call by setting is: under setting [6], “inactive; negative”; under setting [7], “inactive; negative”; under setting [8], “inactive; negative”; under setting [9], “inactive; negative”; under setting [10], “inactive; negative”; under setting [11], “inactive; negative”. Moreover, the mutagenic call is, setting by setting: under setting [12], “inactive; negative”; under setting [13], “inactive; negative”.

As for `O=c1cc[nH]c2ccccc12`, the mutagenic call runs as follows: under setting [1], “inactive; negative”; (Test System: AMES SALMONELLA TYPHIMURIUM, Strain/Indicator: TA100, Metabolic Activation: RAT, LIVER, S-9, AROCLOR 1254 (10% OR 20%), Method: STANDARD PLATE) “inactive; negative”.
